According to ChEMBL document CHEMBL1201862, “PubChem BioAssay data set” (2004):
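Following 48 hours of exposure in 96-well plates, responses at five concentrations were used to interpolate endpoints linearly. GI50 marks 50% less growth.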 Activity calls are given as the source filed them. Cut-off read from the data, not from the text of the source: active = GI50 up to about 1.1 µM and inactive = higher. Where a SMILES comes first, the peptide text is derived from it. The star is where a group is joined. Boc = CC(C)(C)OC(=O)*; OBn = c1ccc(CO*)cc1

Legend:
Test in all cases: NCI-60 cell line screen, 48 h
HCT-116 = test system: HCT-116
MDA-N = test system: MDA-N
UACC-62 = test system: UACC-62
T47D = test system: T47D
SR = test system: SR
SN12C = test system: SN12C
PC-3 = test system: PC-3
MDA-MB-231 = test system: MDA-MB-231
CAKI-1 = test system: CAKI-1
DU-145 = test system: DU-145
NCI-H460 = test system: NCI-H460
SK-MEL-2 = test system: SK-MEL-2
786-0 = test system: 786-0
A549 = test system: A549
SK-OV-3 = test system: SK-OV-3
M14 = test system: M14
HOP-62 = test system: HOP-62
SW-620 = test system: SW-620
MOLT-4 = test system: MOLT-4

Measured: GI50

Cn1c(=O)c2nc(CCCCc3nc4c(=O)n(C)c(=S)n(C)c4[nH]3)[nH]c2n(C)c1=S
inactive: HCT-116 > 100 µM | MDA-N > 100 µM | UACC-62 > 100 µM | T47D > 100 µM | SR > 100 µM | SN12C > 100 µM | PC-3 > 100 µM | MDA-MB-231 > 100 µM | CAKI-1 > 100 µM | DU-145 > 100 µM | NCI-H460 > 100 µM | SK-MEL-2 > 100 µM | 786-0 > 100 µM | A549 > 100 µM | SK-OV-3 45.2 µM | M14 > 100 µM | HOP-62 38.9 µM | SW-620 > 100 µM

COc1ccc(N2C(=O)C(=O)N(c3ccc(/N=N\c4ccccc4)cc3)C2=S)cc1
inactive: HCT-116 19.3 µM | MDA-N 19.3 µM | UACC-62 16.6 µM | T47D 18.8 µM | SR 38 µM | SN12C 18 µM | PC-3 17.6 µM | MDA-MB-231 22.8 µM | CAKI-1 20.2 µM | DU-145 16 µM | NCI-H460 18.3 µM | MOLT-4 32.9 µM | SK-MEL-2 17.9 µM | 786-0 17.5 µM | A549 20.2 µM | SK-OV-3 20.2 µM | HOP-62 18.6 µM | SW-620 18.7 µM

CC(C)(C)c1ccc(-n2c3nc(=O)n(-c4ccccc4C(F)(F)F)c(=O)c-3cc3ccccc32)cc1
inactive: HCT-116 10.5 µM | MDA-N 22.2 µM | UACC-62 14.9 µM | T47D 22.9 µM | SR 19.3 µM | SN12C 20.2 µM | PC-3 17 µM | MDA-MB-231 23.8 µM | CAKI-1 25.1 µM | DU-145 28.1 µM | NCI-H460 4.25 µM | MOLT-4 17.9 µM | SK-MEL-2 14.6 µM | 786-0 25.7 µM | A549 29 µM | M14 14.4 µM | HOP-62 18.3 µM | SW-620 25.8 µM

Nc1cccnc1NCC1(CO)CCCC1
inactive: HCT-116 > 100 µM | MDA-N > 100 µM | UACC-62 > 100 µM | T47D > 100 µM | SR > 100 µM | SN12C > 100 µM | PC-3 > 100 µM | MDA-MB-231 > 100 µM | CAKI-1 > 100 µM | DU-145 > 100 µM | NCI-H460 > 100 µM | MOLT-4 > 100 µM | SK-MEL-2 > 100 µM | 786-0 > 100 µM | A549 > 100 µM | SK-OV-3 > 100 µM | HOP-62 > 100 µM | SW-620 > 100 µM

OCC(CCc1ccccc1I)C1=CCC2(CC1)OCCO2 (stereo not drawn)
inactive: MDA-N 18.2 µM | UACC-62 16.4 µM | T47D 17.7 µM | SR 45.6 µM | PC-3 22.4 µM | MDA-MB-231 23.9 µM | CAKI-1 24.7 µM | DU-145 19.5 µM | NCI-H460 26.5 µM | MOLT-4 61.2 µM | SK-MEL-2 23.9 µM | 786-0 19.9 µM | A549 19.8 µM | SK-OV-3 39 µM | M14 20 µM | HOP-62 18.2 µM | SW-620 23.4 µM

O=C(OCC(OC(=O)c1ccccc1)C1CC(C(O)C2CCCCC2)C(=O)O1)c1ccccc1 (stereo not drawn)
inactive: HCT-116 31.6 µM | MDA-N > 100 µM | UACC-62 > 100 µM | T47D 37.2 µM | SR 20.1 µM | SN12C 47.6 µM | PC-3 45.7 µM | MDA-MB-231 > 100 µM | CAKI-1 > 100 µM | DU-145 > 100 µM | NCI-H460 25.9 µM | MOLT-4 22 µM | SK-MEL-2 > 100 µM | 786-0 > 100 µM | SK-OV-3 > 100 µM | M14 63.7 µM | HOP-62 49.5 µM | SW-620 42.3 µM

O=C1Nc2cccc(Cl)c2/C1=C\c1c(Cl)nc2n1CCS2
inactive: HCT-116 > 100 µM | MDA-N 45.6 µM | UACC-62 73.5 µM | T47D 48.3 µM | SR > 100 µM | SN12C > 100 µM | PC-3 > 100 µM | MDA-MB-231 > 100 µM | CAKI-1 > 100 µM | DU-145 > 100 µM | NCI-H460 > 100 µM | MOLT-4 > 100 µM | SK-MEL-2 > 100 µM | 786-0 > 100 µM | A549 > 100 µM | SK-OV-3 > 100 µM | M14 > 100 µM | HOP-62 > 100 µM | SW-620 > 100 µM

O=C(NCCNCCNC(=O)C(F)(F)F)C(F)(F)F
inactive: HCT-116 > 100 µM | MDA-N > 100 µM | UACC-62 > 100 µM | T47D > 100 µM | SR > 100 µM | SN12C > 100 µM | PC-3 > 100 µM | MDA-MB-231 > 100 µM | CAKI-1 > 100 µM | DU-145 > 100 µM | MOLT-4 > 100 µM | SK-MEL-2 > 100 µM | 786-0 > 100 µM | A549 > 100 µM | SK-OV-3 > 100 µM | M14 > 100 µM | HOP-62 > 100 µM | SW-620 > 100 µM

CC1=CC(C)(C)[C@H]2O[C@@]3(O)C[C@]4(C)[C@H]5C[C@@](C(C)C)(O[C@H]4c4ccoc4)O[C@H]4[C@]5(C3)O[C@@]1(O)[C@]24O
inactive: HCT-116 61.8 µM | MDA-N > 100 µM | UACC-62 > 100 µM | T47D > 100 µM | SR > 100 µM | SN12C > 100 µM | PC-3 > 100 µM | MDA-MB-231 81.3 µM | CAKI-1 > 100 µM | DU-145 > 100 µM | MOLT-4 > 100 µM | SK-MEL-2 > 100 µM | 786-0 89.1 µM | A549 75.9 µM | SK-OV-3 > 100 µM | M14 > 100 µM | HOP-62 23.5 µM | SW-620 > 100 µM

O=C1CCc2ccc(O)c(c2)Oc2ccc(cc2)C(Sc2ccccc2)CCO1 (stereo not drawn)
inactive: HCT-116 16.2 µM | MDA-N 16.2 µM | UACC-62 15.1 µM | T47D 7.74 µM | SR 13.1 µM | SN12C 15.8 µM | PC-3 6.32 µM | MDA-MB-231 3.85 µM | CAKI-1 14.1 µM | DU-145 17.8 µM | MOLT-4 22.1 µM | SK-MEL-2 15.8 µM | 786-0 16 µM | A549 18.6 µM | SK-OV-3 34.3 µM | M14 15.1 µM | HOP-62 12.9 µM | SW-620 17 µM

CC(C)CC(NC(=O)C(Cc1ccccc1)NC(=O)C(Cc1ccccc1)NC(=O)OC(C)(C)C)C(=O)OCc1ccccc1 (stereo not drawn) (Boc-Phe-Phe-Leu-OBn; configuration not given here)
inactive: HCT-116 > 100 µM | MDA-N > 100 µM | UACC-62 > 100 µM | T47D > 100 µM | SR > 100 µM | SN12C > 100 µM | PC-3 > 100 µM | MDA-MB-231 > 100 µM | CAKI-1 > 100 µM | DU-145 > 100 µM | MOLT-4 > 100 µM | SK-MEL-2 > 100 µM | 786-0 > 100 µM | A549 > 100 µM | SK-OV-3 > 100 µM | M14 > 100 µM | HOP-62 > 100 µM | SW-620 > 100 µM
